Molecules are shown by their SMILES. pKi: −log10 of the molar value.

In one test the target is T1, cloned human dopamine D3 receptors (Homo sapiens, UniProt P35462).
T1 construct: expressed in transfected cells; membrane homogenate
T1 sequence (P35462 whole entry): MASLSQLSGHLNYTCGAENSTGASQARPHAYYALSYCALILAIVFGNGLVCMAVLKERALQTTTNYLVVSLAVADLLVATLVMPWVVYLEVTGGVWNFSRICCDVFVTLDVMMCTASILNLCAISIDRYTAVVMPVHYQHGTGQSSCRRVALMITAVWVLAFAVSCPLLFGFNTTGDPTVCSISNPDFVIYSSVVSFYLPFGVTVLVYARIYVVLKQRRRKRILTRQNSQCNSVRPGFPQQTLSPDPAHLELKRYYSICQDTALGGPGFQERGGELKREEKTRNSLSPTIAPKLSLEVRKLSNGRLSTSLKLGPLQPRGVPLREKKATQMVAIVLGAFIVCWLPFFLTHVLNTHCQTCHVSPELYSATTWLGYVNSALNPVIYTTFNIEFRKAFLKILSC
Briefly: [N-Methyl-3H]Spiroperidol binding to cloned human dopamine D3 receptors (Protocol 1). Particulars: D3 Ki (nM), the 25th table. A digest of the protocol:
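Membranes from CHO cells stably expressing cloned human D3 receptor were used for [N-methyl-3H]spiroperidol (60-90 Ci/mmol) binding. Assay buffer was 0.05 M Tris HCl pH 7.7 with 120 mM NaCl, 5 mM KCl, 2 mM CaCl2 and 1 mM MgCl2, optionally 0.1% ascorbic acid; total ligand concentration calculated from added CPM.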
Broadly, the Ki is a dissociation constant, usually derived from enzyme kinetics or from competition with a known ligand. Take `O=C(NCC1CC1CN1CCC(c2noc3ccsc23)CC1)Oc1ccc(F)cc1` (stereo not shown) [compound 831697]: the affinity, expressed as Ki, was 8.35 nM.

The same test, now with this note: Table 2; read-out: D3K1.
Regarding `O=C(NCC(CO)CCN1CCN(c2csc3cc(C(F)(F)F)ccc23)CC1)c1cc2ccccc2o1` (stereo not shown) [818932ES], the pKi was 6.68.

For the compound `CC(=O)C1CC(CC(=O)NC/C=C\CN2CCN(c3csc4cc(C(F)(F)F)ccc34)CC2)C1(C)C` (stereo not shown) [compound 827737], the pKi is 6.97.

Consider `O=C(NCCCCN1CCCN(c2csc3cc(F)ccc23)CC1)c1c2ccccc2cc2ccccc12` [compound 826762], for which the pKi was 7.24.

Consider `O=C(NCCCN1CCCN(c2csc3cc(F)ccc23)CC1)c1ccc2ccccc2c1` [compound 827139], for which the pKi was 6.88.

As for `O=C(NCCCN1CCCN(c2csc3cc(F)ccc23)CC1)c1cccc2ccccc12` [compound 827138], the pKi was 6.78.

Consider `COc1cc(C)c2cc(C(=O)NCCCCN3CCCN(c4csc5cc(F)ccc45)CC3)oc2c1OC` [compound 827131], for which the pKi was 8.38.

For `O=C(Cc1cccs1)NCCCCN1CCN(c2c(-c3ccccc3)sc3cc(F)ccc23)CC1` [compound 815884], the pKi is 6.53.

Consider `CN(C)c1cccc(C(=O)NCCCCN2CCCN(c3csc4cc(F)ccc34)CC2)c1` [compound 817268], for which the pKi was 8.15.

For the compound `O=C(NCC(CO)CCN1CCN(c2csc3cc(C(F)(F)F)ccc23)CC1)c1ccsc1` (stereo not shown) [818927ES], the pKi was 6.79.

For `O=C(NCCCCN1CCN(c2c(-c3ccccc3)sc3cc(F)ccc23)CC1)c1ccc(Cl)cc1` [compound 815880], the pKi was 6.08.

Consider `COc1ccc(/C=C/C(=O)NC/C=C/CN2CCN(c3csc4cc(C(F)(F)F)ccc34)CC2)cc1` [compound 827739], for which the pKi is 7.65.

Regarding `O=C(NCCCCCN1CCCN(c2csc3cc(F)ccc23)CC1)c1cc(-c2ccco2)nc2ccccc12` [compound 827159], the pKi is 8.23.

Still in this test, the particulars now being: read-out: D3K1.
For the compound `O=C(NCCCCCN1CCN(c2csc3cc(C(F)(F)F)ccc23)CC1)c1cccc2ccccc12` [compound 826768], the pKi was 7.64.

Take `CC1(C)C(CNC(=O)c2cccs2)C1CN1CCN(c2csc3cc(C(F)(F)F)ccc23)CC1` (stereo not shown) [compound 826276]: the pKi was 7.24.

Take `COc1ccc(C(=O)NCCCCN2CCN(c3c(Cl)sc4cc(C(F)(F)F)ccc34)CC2)cc1OC` [compound 815570]: the pKi was 7.52.

On to `O=C(NCCCCCN1CCN(c2csc3cc(C(F)(F)F)ccc23)CC1)c1cccc2[nH]ccc12` [compound 826798], for which the pKi was 8.19.

Take `O=C(NCCCCCN1CCN(c2csc3cc(C(F)(F)F)ccc23)CC1)c1ccc2ccccc2c1` [compound 826769]: the pKi was 8.15.

Take `O=C(NCCCCN1CCN(c2c(Cl)sc3cc(F)ccc23)CC1)c1ccco1` [compound 815068]: the pKi was 8.31.

In the case of `O=C(NC/C=C/CN1CCN(c2csc3cc(C(F)(F)F)ccc23)CC1)c1ccccn1` [compound 827713], the pKi was 7.19.

In the case of `O=C(NCCCCN1CCN(c2c(Cl)sc3cc(F)ccc23)CC1)c1ccc(C(F)(F)F)cc1` [compound 815067], the pKi is 7.70.

As to `O=C(NCCCCCCN1CCN(c2csc3cc(C(F)(F)F)ccc23)CC1)c1cccc2ccccc12` [compound 826750], the pKi is 8.49.

With `O=C(NC/C=C/CN1CCN(c2csc3cc(C(F)(F)F)ccc23)CC1)c1cccc(F)c1` [compound 827720], the pKi was 7.07.

For `COc1ccc(C(=O)N[C@@H](CO)CCCN2CCN(c3csc4cc(C(F)(F)F)ccc34)CC2)cc1` [compound 815668], the pKi was 6.82.

Regarding `O=C(NCCCCN1CCN(c2c(Cl)sc3cc(C(F)(F)F)ccc23)CC1)c1ccc2c(c1)OCO2` [compound 815563], the pKi is 7.68.

The same test, now with this note: the 13th table, unit inferred; read-out: D3Ki.
For the compound `O=C(NCCCCN1CCCN(c2csc3cc(C(F)(F)F)ccc23)CC1)c1cccc(C(F)(F)F)c1` [S980633], the pKi is 6.64.

For `Cc1ccccc1C(=O)NCCCCN1CCCN(c2csc3cc(F)ccc23)CC1` [compound 822199], the pKi was 8.42.

Turning to `CC(C)(C)c1ccc(C(=O)NCCCCN2CCCN(c3csc4cc(C(F)(F)F)ccc34)CC2)cc1` [S980642], the pKi is 7.16.

Regarding `O=C(NCCCCN1CCC(c2noc3ccsc23)CC1)c1ccc(Cl)cc1` [compound 815151], the pKi was 6.87.

`CCCCCCC(=O)NCCCCCN1CCC(c2noc3ccsc23)CC1` [compound 816202]: the pKi is 6.49.

On to `O=C(NCCCCCN1CCCN(c2csc3cc(F)ccc23)CC1)c1cccc2ccccc12` [S984489], for which the pKi is 7.38.

Take `Cn1c(C(=O)NCCCCN2CCCN(c3csc4cc(F)ccc34)CC2)cc2ccccc21` [822228G]: the pKi is 8.75.

For the compound `O=C(NCCCCCN1CCC(c2noc3ccsc23)CC1)c1ccccc1C(F)(F)F` [compound 816211], the pKi is 6.65.

`O=C(NCCCCN1CCCN(c2csc3cc(F)ccc23)CC1)c1cnc2ccccc2n1` [compound 822200]: the pKi is 7.97.

On to `O=C(NCCCCN1CCCN(c2csc3cc(F)ccc23)CC1)c1cc([N+](=O)[O-])cc([N+](=O)[O-])c1` [S982535], for which the pKi was 8.28.

Consider `COc1ccc2cc(C(=O)NCCCCN3CCCN(c4csc5cc(C(F)(F)F)ccc45)CC3)[nH]c2c1` [S980647], for which the pKi is 7.77.

Regarding `O=C(NCCCCN1CCCN(c2csc3cc(C(F)(F)F)ccc23)CC1)c1ccsc1` [S980656], the pKi was 7.55.

The test is the same for the next values; noted with them: the 14th table; read-out: D3 Ki.
In the case of `O=C(NCCCCCN1CCN(c2csc3cc(C(F)(F)F)ccc23)CC1)c1cccc2ccccc12` [compound 826768], the pKi was 7.64.

In the case of `CC1=C(C(=O)NCCCCCN2CCN(c3csc4cc(F)ccc34)CC2)Cc2ccccc21` [compound 826792], the pKi was 8.41.

For the compound `O=C(NCCCCCN1CCN(c2csc3cc(C(F)(F)F)ccc23)CC1)c1cccc2[nH]ccc12` [compound 826798], the pKi was 8.19.

Regarding `O=C(NCCCCCN1CCN(c2csc3cc(C(F)(F)F)ccc23)CC1)c1ccc2ccccc2c1` [compound 826769], the pKi was 8.15.

For the compound `O=C(NCCCCCCN1CCN(c2csc3cc(C(F)(F)F)ccc23)CC1)c1cccc2ccccc12` [compound 826750], the pKi is 8.49.

In the case of `COc1ccc(C(=O)N[C@@H](CO)CCCN2CCN(c3csc4cc(C(F)(F)F)ccc34)CC2)cc1` [compound 815668], the pKi was 6.82.

On to `O=C(NCCCCCN1CCN(c2csc3cc(F)ccc23)CC1)c1cc2ccccc2[nH]1` [compound 826784], for which the pKi is 8.48.

Take `O=C(NCCCCCN1CCN(c2csc3cc(F)ccc23)CC1)c1ccc2ccccc2c1` [compound 826779]: the pKi is 9.01.

Staying with this test, now noted: the 15th table; read-out: D3 Ki.
Turning to `O=C(NCCCCN1C2CCC1CC(c1noc3ccccc13)C2)c1cccc2ccccc12` (stereo not shown) [compound 816538], the pKi was 6.75.

Regarding `O=C(NCCCCN1C2CCC1CC(c1noc3ccccc13)C2)c1ccc(Br)cc1` (stereo not shown) [compound 816536], the pKi is 6.85.

Regarding `CSc1ncccc1C(=O)NCCCCN1C2CCC1CC(c1noc3ccccc13)C2` (stereo not shown) [compound 816541], the pKi was 6.29.

Regarding `O=C(NCCCCN1C2CCC1CC(c1noc3cc(F)ccc13)C2)c1ccccc1C(F)(F)F` (stereo not shown) [compound 816340], the pKi is 6.37.

As to `O=C(NCCCCN1C2CCC1CC(c1noc3ccccc13)C2)c1ccccc1[N+](=O)[O-]` (stereo not shown) [compound 816537], the pKi was 6.39.

The test is the same for the next values; noted with them: the 16th table; read-out: D3 Ki.
Regarding `O=C(NCCCCN1CCCN(c2csc3cc(F)ccc23)CC1)c1c2ccccc2cc2ccccc12` [compound 826762], the pKi is 7.24.

Regarding `O=C(NCCCN1CCCN(c2csc3cc(F)ccc23)CC1)c1ccc2ccccc2c1` [compound 827139], the pKi is 6.88.

As to `O=C(NCCCN1CCCN(c2csc3cc(F)ccc23)CC1)c1cccc2ccccc12` [compound 827138], the pKi is 6.78.

Turning to `COc1cc(C)c2cc(C(=O)NCCCCN3CCCN(c4csc5cc(F)ccc45)CC3)oc2c1OC` [compound 827131], the pKi is 8.38.

Regarding `CN(C)c1cccc(C(=O)NCCCCN2CCCN(c3csc4cc(F)ccc34)CC2)c1` [compound 817268], the pKi is 8.15.

For `O=C(NCCCCCN1CCCN(c2csc3cc(F)ccc23)CC1)c1cc(-c2ccco2)nc2ccccc12` [compound 827159], the pKi was 8.23.

Staying with this test, now noted: the 18th table; read-out: D3 Ki.
Turning to `O=C(NCc1sccc1CN1CCN(c2csc3cc(F)ccc23)CC1)c1c[nH]c2ccccc12` [compound 826325], the pKi is 7.27.

Still in this test, the particulars now being: the 19th table; read-out: D3 Ki.
`O=C(Nc1cccc(CN2CCN(c3csc4cc(F)ccc34)CC2)c1)c1cnc2ccccc2n1` [compound 822184]: the pKi is 6.57.

In the case of `COc1cccc(C(=O)Nc2ccc(CN3CCN(c4csc5cc(F)ccc45)CC3)cc2)c1` [compound 822209], the pKi was 6.44.

Consider `Cc1ccccc1C(=O)Nc1ccc(CN2CCN(c3csc4cc(F)ccc34)CC2)cc1` [compound 822212], for which the pKi is 6.79.

Still in this test, the particulars now being: the 20th table; read-out: D3 Ki.
For `O=C(NCc1ccoc1CN1CCN(c2csc3cc(F)ccc23)CC1)c1cccc(C(F)(F)F)c1` [compound 825841], the pKi is 6.84.

Consider `O=C(NCc1ccoc1CN1CCN(c2csc3cc(F)ccc23)CC1)c1ccc(F)cc1` [compound 825845], for which the pKi was 6.69.

Still in this test, the particulars now being: the 21st table; read-out: D3 Ki.
With `C[C@@H]1CN(c2csc3cc(F)ccc23)C[C@H](C)N1CCCCNC(=O)c1ccc2[nH]ccc2c1` [compound 826964], the pKi was 7.49.

In the case of `COc1ccc(C(=O)NCCCCN2[C@H](C)CN(c3csc4cc(F)ccc34)C[C@@H]2C)cc1OC` [compound 826940], the pKi is 7.31.

For the compound `C[C@@H]1CN(c2csc3cc(C(F)(F)F)ccc23)C[C@H](C)N1CCCCNC(=O)c1cc2ccccc2n1C` [compound 826950], the pKi is 7.09.

As to `C[C@@H]1CN(c2csc3cc(F)ccc23)C[C@H](C)N1CCCCNC(=O)c1cccc2ccccc12` [compound 827050], the pKi was 6.73.

Consider `C[C@@H]1CN(c2csc3cc(C(F)(F)F)ccc23)C[C@H](C)N1CCCCNC(=O)c1ccncc1` [compound 826937], for which the pKi was 6.60.

With `C[C@@H]1CN(c2csc3cc(F)ccc23)C[C@H](C)N1CCCCNC(=O)c1cc2ccccc2o1` [compound 827036], the pKi was 7.29.

The same test, now with this note: the 22nd table; read-out: D3 Ki.
Regarding `O=C(NCCCCN1CCN(c2noc3ccsc23)CC1)c1ccc(F)cc1` [compound 829674], the pKi is 7.04.

Staying with this test, now noted: the 23rd table; read-out: D3 Ki.
`CC(C)c1ccc(CNCC2CC2CN2CCN(c3csc4cc(C(F)(F)F)ccc34)CC2)cc1` (racemic) [compound 832182]: the pKi was 7.01.

In the case of `COc1ccccc1N1CCN(C[C@@H]2C[C@H]2CN2CCN(c3csc4cc(C(F)(F)F)ccc34)CC2)CC1` [compound 833379], the pKi is 9.08.

Regarding `CC[C@H]1CC[C@H](NC[C@@H]2C[C@H]2CN2CCN(c3c(Cl)sc4cc(C(F)(F)F)ccc34)CC2)CC1` [compound 832329], the pKi was 6.82.

The test is the same for the next values; noted with them: the 24th table; read-out: D3 Ki.
For `O=S(=O)(NCC1CC1CN1CCN(c2csc3cc(C(F)(F)F)ccc23)CC1)c1ccc(OC(F)(F)F)cc1` (stereo not shown) [compound 831592], the pKi was 6.71.
